system: Aorta; assay: Vasodilatory activity in Wistar rat thoracic aorta rings assessed as inhibition of norepinephrine hydrochloride-induced contraction; format: functional, tissue-based

In the case of `Cc1coc2c1C(=O)C(=O)c1c-2ccc2c1C(OC(=O)c1ccccc1F)CCC2(C)C` (stereo not given), the inhibition is reported as “Dose-dependent effect”.
`COc1ccc(C(=O)OC2CCC(C)(C)c3ccc4c(c32)C(=O)C(=O)c2c(C)coc2-4)cc1` (stereo not given) was tested, and the inhibition was “Dose-dependent effect”.
With `COc1cccc(CC(=O)OC2CCC(C)(C)c3ccc4c(c32)C(=O)C(=O)c2c(C)coc2-4)c1` (stereo not given) the inhibition was “Dose-dependent effect”.
For `Cc1coc2c1C(=O)C(=O)c1c-2ccc2c1C(OC(=O)c1ccccc1O)CCC2(C)C` (stereo not given), the inhibition was “Dose-dependent effect”.

system: Aorta; assay: Vasodilatory activity in Wistar rat thoracic aorta rings assessed as inhibition of norepinephrine hydrochloride-induced contraction at 1 X 10 '-4 M; format: functional

Compared with `Cc1coc2c1C(=O)C(=O)c1c-2ccc2c1C(OC(=O)Cc1ccc(F)cc1)CCC2(C)C` (stereo not given), `Cc1coc2c1C(=O)C(=O)c1c-2ccc2c1C(OC(=O)Cc1ccc(O)cc1)CCC2(C)C` (stereo not given) is higher in inhibition at 100 µM: -13.3% for the first, -1.67% for the second.

Going from `Cc1coc2c1C(=O)C(=O)c1c-2ccc2c1C(OC(=O)Cc1ccccc1)CCC2(C)C` (stereo not given) to `Cc1coc2c1C(=O)C(=O)c1c-2ccc2c1C(OC(=O)c1ccccc1)CCC2(C)C` (stereo not given), the inhibition at 100 µM rises from -17.8% to -9.41%.

Going from `Cc1coc2c1C(=O)C(=O)c1c-2ccc2c1C(OC(=O)Cc1ccccc1F)CCC2(C)C` (stereo not given) to `Cc1coc2c1C(=O)C(=O)c1c-2ccc2c1C(OC(=O)Cc1ccccc1O)CCC2(C)C` (stereo not given), the inhibition at 100 µM falls from 1.92% to -0.37%.

Compared with `Cc1coc2c1C(=O)C(=O)c1c-2ccc2c1C(OC(=O)c1ccc(F)cc1)CCC2(C)C` (stereo not given), `Cc1coc2c1C(=O)C(=O)c1c-2ccc2c1C(OC(=O)c1ccc(O)cc1)CCC2(C)C` (stereo not given) is higher in inhibition at 100 µM: -3.3% for the first, 9.39% for the second.

First: Cc1coc2c1C(=O)C(=O)c1c-2ccc2c1CCCC2(C)C [TANSHINONE IIA]
Second: Cc1coc2c1C(=O)C(=O)c1c-2ccc2c1C(OC(=O)c1cccc(F)c1)CCC2(C)C (stereo not given)
The inhibition at 100 µM of the first is higher: 1.86% for the first, -3.59% for the second.

First: Cc1coc2c1C(=O)C(=O)c1c-2ccc2c1C(OC(=O)Cc1cccc(F)c1)CCC2(C)C (stereo not given)
Second: Cc1coc2c1C(=O)C(=O)c1c-2ccc2c1C(OC(=O)Cc1cccc(O)c1)CCC2(C)C (stereo not given)
The inhibition at 100 µM of the first is higher: -2.78% for the first, -4.92% for the second.

First: Cc1coc2c1C(=O)C(=O)c1c-2ccc2c1C(OC(=O)c1cccc(O)c1)CCC2(C)C (stereo not given)
Second: COc1cccc(C(=O)OC2CCC(C)(C)c3ccc4c(c32)C(=O)C(=O)c2c(C)coc2-4)c1 (stereo not given)
The inhibition at 100 µM of the first is higher: 19.1% for the first, -0.25% for the second.

First: COc1ccccc1C(=O)OC1CCC(C)(C)c2ccc3c(c21)C(=O)C(=O)c1c(C)coc1-3 (stereo not given)
Second: Cc1coc2c1C(=O)C(=O)c1c-2ccc2c1C(OC(=O)c1ccccc1F)CCC2(C)C (stereo not given)
The inhibition at 100 µM of the first is lower: 7.58% for the first, 21.8% for the second.

Going from `COc1ccc(C(=O)OC2CCC(C)(C)c3ccc4c(c32)C(=O)C(=O)c2c(C)coc2-4)cc1` (stereo not given) to `COc1ccc(CC(=O)OC2CCC(C)(C)c3ccc4c(c32)C(=O)C(=O)c2c(C)coc2-4)cc1` (stereo not given), the inhibition at 100 µM falls from 23.5% to 20.2%.

Going from `COc1cccc(CC(=O)OC2CCC(C)(C)c3ccc4c(c32)C(=O)C(=O)c2c(C)coc2-4)c1` (stereo not given) to `COc1ccccc1CC(=O)OC1CCC(C)(C)c2ccc3c(c21)C(=O)C(=O)c1c(C)coc1-3` (stereo not given), the inhibition at 100 µM falls from 29.4% to 12.8%.

`Cc1coc2c1C(=O)C(=O)c1c-2ccc2c1C(OC(=O)c1ccccc1O)CCC2(C)C` (stereo not given) was tested, and the inhibition at 100 µM was 22.4%.

Reference: ChEMBL document CHEMBL2057087, “Design, synthesis and vasodilative activity of tanshinone IIA derivatives” (2012)
